Data reported in patent US20170190671A1, “BIS(ARYL)CATECHOL DERIVATIVES AS HERBICIDES” (E I DU PONT DE NEMOURS AND COMPANY, priority 2014, published 2017).

Assays:
Assay in all cases: Test C postemergence
Format in all cases: in vivo
[1] = tested on: waterhemp (common waterhemp, Amaranthus rudis); conditions: Amaranthus tuberculatus, post-emergence, Postemergence, scale 0 to 100, read-out: Plant response rating, Waterhemp
Outline: (§1)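 Visual ratings were made 13-15 days after treatment in the greenhouse, scored 0-100 against controls, where 100 means complete control. Treatments used a surfactant-containing non-phytotoxic solvent formulation, applied preemergence to seeds in loam-sand soil or postemergence to 2-18 cm plants (1-4 leaves) in peat-based medium.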

[2] = tested on: wild oat (Avena fatua); conditions: Avena fatua, post-emergence, Postemergence, scale 0 to 100, read-out: Plant response rating, Oat, Wild
Outline: as §1

[3] = tested on: soybean (Glycine max); conditions: Glycine max, post-emergence, Postemergence, scale 0 to 100, read-out: Plant response rating, Soybean
Outline: as §1

[4] = tested on: blackgrass (Alopecurus myosuroides); conditions: Alopecurus myosuroides, post-emergence, 336 h, Postemergence, scale 0 to 100, read-out: Plant response rating, Blackgrass
Outline: as §1

[5] = tested on: yellow nutsedge (Cyperus esculentus); conditions: Cyperus, post-emergence, 336 h, Postemergence, scale 0 to 100, read-out: Plant response rating, Nutsedge, Yellow
Outline: as §1

[6] = tested on: johnsongrass (Sorghum halepense); conditions: Sorghum halepense, post-emergence, 336 h, Postemergence, scale 0 to 100, read-out: Plant response rating, Johnsongrass
Outline: as §1

[7] = tested on: large (Lg) crabgrass (Digitaria sanguinalis); conditions: Digitaria sanguinalis, post-emergence, 336 h, Postemergence, scale 0 to 100, read-out: Plant response rating, Crabgrass, Large
Outline: as §1

[8] = tested on: Italian ryegrass (Lolium multiflorum); conditions: Lolium multiflorum, post-emergence, 336 h, Postemergence, scale 0 to 100, read-out: Plant response rating, Ryegrass, Italian
Outline: as §1

[9] = tested on: chickweed (common chickweed, Stellaria media); conditions: Stellaria media, post-emergence, Postemergence, scale 0 to 100, read-out: Plant response rating, Chickweed
Outline: as §1

[10] = tested on: oilseed rape (Brassica napus); conditions: Brassica napus, post-emergence, Postemergence, scale 0 to 100, read-out: Plant response rating, Oilseed Rape
Outline: as §1

[11] = tested on: winter wheat (Triticum aestivum); conditions: Triticum aestivum, post-emergence, 336 h, Postemergence, scale 0 to 100, read-out: Plant response rating, Wheat
Outline: as §1

[12] = tested on: pigweed (Amaranthus retroflexus); conditions: Amaranthus retroflexus, post-emergence, 336 h, Postemergence, scale 0 to 100, read-out: Plant response rating, Pigweed
Outline: as §1

[13] = tested on: barnyardgrass (Echinochloa crus-galli); conditions: Echinochloa crus-galli, post-emergence, Postemergence, scale 0 to 100, read-out: Plant response rating, Barnyardgrass
Outline: as §1

[14] = tested on: kochia (Kochia scoparia); conditions: Bassia scoparia, post-emergence, Postemergence, scale 0 to 100, read-out: Plant response rating, Kochia
Outline: as §1

[15] = tested on: velvetleaf (Abutilon theophrasti); conditions: Abutilon theophrasti, post-emergence, Postemergence, scale 0 to 100, read-out: Plant response rating, Velvetleaf
Outline: as §1

[16] = tested on: ragweed (common ragweed, Ambrosia elatior); conditions: Ambrosia artemisiifolia, post-emergence, 336 h, Postemergence, scale 0 to 100, read-out: Plant response rating, Ragweed
Outline: as §1

[17] = tested on: corn (Zea mays); conditions: Zea mays, post-emergence, 336 h, Postemergence, scale 0 to 100
Outline: as §1

[18] = tested on: lambsquarters (Chenopodium album); conditions: Chenopodium album, post-emergence, 336 h, Postemergence, scale 0 to 100, read-out: Plant response rating, Lambsquarters
Outline: as §1

Question: Which results are given for `Fc1cccc(Oc2ncc(Cl)cn2)c1Oc1ccc(Cl)nc1` [Compound 20]?
Answer: pest or weed control at 31 g/ha ([1]; 31 g ai/ha): 85%; pest or weed control at 62 g/ha ([1]; 62 g ai/ha): 90%; pest or weed control at 125 g/ha ([1]; 125 g ai/ha): 90%; pest or weed control at 250 g/ha ([1]; 250 g ai/ha): 95%; pest or weed control at 31 g/ha ([2]; 31 g ai/ha): 5%; pest or weed control at 62 g/ha ([2]; 62 g ai/ha): 10%; pest or weed control at 125 g/ha ([2]; 125 g ai/ha): 10%; pest or weed control at 250 g/ha ([2]; 250 g ai/ha): 10%; plant injury at 31 g/ha ([3]; 31 g ai/ha): 25%; plant injury at 62 g/ha ([3]; 62 g ai/ha): 70%; plant injury at 125 g/ha ([3]; 125 g ai/ha): 65%; plant injury at 250 g/ha ([3]; 250 g ai/ha): 65%; pest or weed control at 31 g/ha ([4]; 31 g ai/ha): 5%; pest or weed control at 62 g/ha ([4]; 62 g ai/ha): 10%; pest or weed control at 125 g/ha ([4]; 125 g ai/ha): 5%; pest or weed control at 250 g/ha ([4]; 250 g ai/ha): 15%; pest or weed control at 31 g/ha ([5]; 31 g ai/ha): 0%; pest or weed control at 62 g/ha ([5]; 62 g ai/ha): 5%; pest or weed control at 125 g/ha ([5]; 125 g ai/ha): 10%; pest or weed control at 250 g/ha ([5]; 250 g ai/ha): 10%; pest or weed control at 31 g/ha ([6]; 31 g ai/ha): 5%; pest or weed control at 62 g/ha ([6]; 62 g ai/ha): 5%; pest or weed control at 125 g/ha ([6]; 125 g ai/ha): 5%; pest or weed control at 250 g/ha ([6]; 250 g ai/ha): 5%; pest or weed control at 31 g/ha ([7]; 31 g ai/ha): 5%; pest or weed control at 62 g/ha ([7]; 62 g ai/ha): 5%; pest or weed control at 125 g/ha ([7]; 125 g ai/ha): 10%; pest or weed control at 250 g/ha ([7]; 250 g ai/ha): 20%; pest or weed control at 31 g/ha ([8]; 31 g ai/ha): 5%; pest or weed control at 62 g/ha ([8]; 62 g ai/ha): 5%; pest or weed control at 125 g/ha ([8]; 125 g ai/ha): 10%; pest or weed control at 250 g/ha ([8]; 250 g ai/ha): 15%; pest or weed control at 31 g/ha ([9]; 31 g ai/ha): 35%; pest or weed control at 62 g/ha ([9]; 62 g ai/ha): 40%; pest or weed control at 125 g/ha ([9]; 125 g ai/ha): 45%; pest or weed control at 250 g/ha ([9]; 250 g ai/ha): 80%; plant injury at 31 g/ha ([10]; 31 g ai/ha): 15%; plant injury at 62 g/ha ([10]; 62 g ai/ha): 70%; plant injury at 125 g/ha ([10]; 125 g ai/ha): 80%; plant injury at 250 g/ha ([10]; 250 g ai/ha): 70%; plant injury at 31 g/ha ([11]; 31 g ai/ha): 0%; plant injury at 62 g/ha ([11]; 62 g ai/ha): 0%; plant injury at 125 g/ha ([11]; 125 g ai/ha): 5%; plant injury at 250 g/ha ([11]; 250 g ai/ha): 5%; pest or weed control at 31 g/ha ([12]; 31 g ai/ha): 75%; pest or weed control at 62 g/ha ([12]; 62 g ai/ha): 80%; pest or weed control at 125 g/ha ([12]; 125 g ai/ha): 90%; pest or weed control at 250 g/ha ([12]; 250 g ai/ha): 98%; pest or weed control at 31 g/ha ([13]; 31 g ai/ha): 5%; pest or weed control at 62 g/ha ([13]; 62 g ai/ha): 5%; pest or weed control at 125 g/ha ([13]; 125 g ai/ha): 10%; pest or weed control at 250 g/ha ([13]; 250 g ai/ha): 10%; pest or weed control at 31 g/ha ([14]; 31 g ai/ha): 80%; pest or weed control at 62 g/ha ([14]; 62 g ai/ha): 90%; pest or weed control at 125 g/ha ([14]; 125 g ai/ha): 90%; pest or weed control at 250 g/ha ([14]; 250 g ai/ha): 98%; pest or weed control at 31 g/ha ([15]; 31 g ai/ha): 35%; pest or weed control at 62 g/ha ([15]; 62 g ai/ha): 30%; pest or weed control at 125 g/ha ([15]; 125 g ai/ha): 35%; pest or weed control at 250 g/ha ([15]; 250 g ai/ha): 55%; pest or weed control at 31 g/ha ([16]; 31 g ai/ha): 20%; pest or weed control at 62 g/ha ([16]; 62 g ai/ha): 20%; pest or weed control at 125 g/ha ([16]; 125 g ai/ha): 45%; pest or weed control at 250 g/ha ([16]; 250 g ai/ha): 60%; Corn plant response rating (crop injury, 0 = no effect, 100 = complete kill) at 31 g/ha ([17]; 31 g ai/ha): 5%; Corn plant response rating (crop injury, 0 = no effect, 100 = complete kill) at 62 g/ha ([17]; 62 g ai/ha): 15%; Corn plant response rating (crop injury, 0 = no effect, 100 = complete kill) at 125 g/ha ([17]; 125 g ai/ha): 20%; Corn plant response rating (crop injury, 0 = no effect, 100 = complete kill) at 250 g/ha ([17]; 250 g ai/ha): 15%; pest or weed control at 31 g/ha ([18]; 31 g ai/ha): 85%; pest or weed control at 62 g/ha ([18]; 62 g ai/ha): 75%; pest or weed control at 125 g/ha ([18]; 125 g ai/ha): 75%; pest or weed control at 250 g/ha ([18]; 250 g ai/ha): 80%
